Row | melting point [°C] | Compound
1 | 241 to 243 | CC(C)(C)c1ccc(NS(=O)(=O)c2ccc(N3CCNC3=O)cc2)cc1
2 | 127 to 128 | O=Cc1cccc2sc(-c3ccccc3)nc12
3 | 243 to 245 | CN(C)C=Nc1n[nH]c2ncnc(Nc3cccc(Cl)c3)c12
4 | 104 to 107 | CN1C(=O)C=C(c2ccc3c(c2)CCCC3)C1=O
5 | 124 to 126 | Cc1cccc(NC(=O)CN2CCN(c3ncccc3C#N)CC2)c1C
6 | 291 to 300 | Cc1cccc(Cl)c1NS(=O)(=O)c1n[nH]c(NC=O)n1
7 | 175 to 178 | CC1(C)Oc2ccc(CO)cc2[C@@H](N2CCCC2=O)[C@@H]1O (relative stereo)
8 | 38 to 40 | CCCCCCCCCCCCCCCCCCN(OCCCC)C(CCCCCCCCCCCCCCCCC)P(=O)(OCCCC)OCCCC (stereo unspecified)
9 | 114 to 115 | CCCNc1ncnc2c1ncn2C1CC(F)C(CO)O1 (stereo unspecified)
10 | 192 to 197 | O[C@H](COc1cccc2[nH]ccc12)CN1CCC(c2c[nH]c3c(Cl)c(Cl)ccc23)CC1
11 | 75 to 76 | CO[C@@H](C(=O)N[C@H]1CC[C@@H](OC(=O)C2CCCC2)CNC1=O)[C@H](O)[C@@H](O)[C@H](O)/C=C/C(C)(C)C
12 | 178 to 180 | COC(=O)c1nc2c(c(-c3cccs3)nn2-c2ccccc2)c(N)c1C(=O)OC
13 | 193 to 196 | CC(Oc1cccnc1)C(=O)Nc1ccc(C(=O)Nc2ccccc2N)cc1 (stereo unspecified)
14 | 102 to 104 | CC(C)=CCC/C(C)=C/CSc1nc2cc(Cl)ccc2[nH]1
15 | 92 | CC(=O)/C=C(\C)c1ccc(-c2ccccc2F)cc1
16 | 116 | CC1(C)CC(=C[C@H]2[C@H](C(=O)O)C2(C)C)CC(C)(C)C1 (relative stereo)
17 | 28 | CCOC(=O)CCNC(=O)CCCCNC(=O)OC(C)(C)C
18 | 194 | NC1=CC(N)=NCN1C(=O)OCc1ccccc1
19 | 92 | CC#CCOc1ccc(S(=O)C(C(=O)NO)c2ccc(Cl)cc2)cc1 (stereo unspecified)

Row | melting point [°C] | Compound
20 | 155 to 156 | O=c1c(Cc2cccnc2)nc2cccnc2n1-c1cccc(-c2ccc3ccccc3c2)c1
21 | 184 to 186 | COc1ccc(Sc2cc(Cl)ccc2[N+](=O)[O-])c(C(=O)O)c1
22 | 191 to 192 | Cc1cc(Nc2cnc(C(=O)N(C)CCO)c(Nc3ccc(Cl)cc3)n2)n[nH]1
23 | 279 to 280 | O=C(Nc1ccc2oc3c(c2c1)CCCC3)c1ccc([N+](=O)[O-])cc1
24 | 120 | C[C@H](N)c1ccc(O)cc1
25 | 81 to 83 | C=C(C)COc1cc2c(c(C)c1C)N(C=O)CC2
26 | 224 to 228 | COC1=CC(=O)c2c(cc(Br)c(O)c2Br)C1=O
27 | 205 to 210 | O=C(c1cc2cc3oc(=O)[nH]c3cc2o1)N1CCC(Cc2ccccc2)CC1
28 | > 300 | Cc1nsc(-n2cc(C(=O)O)c(=O)c3cc(F)c(N4CCCC4)nc32)n1
29 | 235 to 240 | CC(=O)N(C)c1c(I)c(N)c(I)c(C(=O)N(C)C)c1I
30 | 230 | O=C(O)c1cc2cc(F)c(Cl)cc2nc1Cl
31 | 318 | N#Cc1c[nH]c2c(C(=O)O)cccc12
32 | 126 to 127 | CS(=O)(=O)c1ccc(-c2cnn(-c3ccc(F)c(F)c3)c(=O)c2OCCC2C=CCC2)cc1 (stereo unspecified)
33 | 135 to 136 | CC(=O)OC1CSC(Oc2cc(-c3ccc(F)nc3)cnc2F)C(OC(C)=O)C1OC(C)=O (stereo unspecified)
34 | 168 to 170 | O=C1C2CCC(C(=O)N2Cc2ccccc2)N1Cc1ccccc1
35 | 139 to 140 | CC(=O)Nc1nc(Cl)c2ncn(COC(COC(C)=O)COC(C)=O)c2n1
36 | 145 to 147 | Nc1nc(NCCC23CC4CC(CC(C4)C2)C3)nc2c1ncn2C1OC(CO)C(O)C1O (stereo unspecified)
37 | 110 to 113 | COc1ccc(O)c(C2(CO)C(=O)N(Cc3ccc(C(F)(F)F)o3)c3ccc(F)cc32)n1 (stereo unspecified)
38 | 305 to 308 | N#Cc1cnc2c(sc3ccccc32)c1Cl

Further lines, the compound ahead of its results:

Row | Compound | melting point [°C]
39 | COC(=O)N(O)c1cccnc1Oc1ccccc1 | 140
40 | CCCCCCC1=CC(O)(C(Br)Br)N(CCCC)C1=O (stereo unspecified) | 85 to 86
41 | N#CC1(N)CCC2Cc3ccccc3CC2C1 (stereo unspecified) | 128
42 | O=[N+]([O-])c1cc([N+](=O)[O-])c(Nc2ccc(Cl)c3ccccc23)c(C(F)(F)F)c1 | 197 to 198
43 | Cc1nc(-c2ccccc2)cc(-c2ccc([N+](=O)[O-])cc2)c1C(=O)O | 260 to 263
44 | O=S(CSc1ccc(Cl)cc1)c1ccccc1 (stereo unspecified) | 70 to 71
45 | CCOC(=O)c1nn(Cc2ccccc2F)c2ncccc12 | 85
46 | O=C1CCC(c2ccc(C3CCCC3)cc2)=NN1 | 191 to 192
47 | Cc1c(C#N)oc2c(-c3ccc(F)cc3)c(-c3ccc(S(N)(=O)=O)cc3)nn12 | 231 to 232
48 | CC(C)(C)c1cc(OCC(=O)O)cc(C(C)(C)C)c1O | 172 to 173
49 | COc1cc(NC(C)=O)ccc1C=NNC(=N)NN=Cc1ccc(NC(C)=O)cc1OC | 287 to 288
50 | Cc1cccc2c(=O)c(CS(C)(=O)=O)cn(C)c12 | 244 to 246
51 | COc1cc2c(cc1OC)C(c1ccccc1)N(C(=O)NCCN(C(C)C)C(C)C)CC2 (stereo unspecified) | 109 to 110
52 | CC(C)(CCn1cnc(-c2ccccc2)c1)NCC(O)c1ccc(O)c(NS(C)(=O)=O)c1 (stereo unspecified) | 133 to 136
53 | COC(=O)C1=C(C)NC(C#N)=C(C(=O)OC)C1c1cccc2c(=O)c(C)c(-c3ccccc3)oc12 (stereo unspecified) | 250
54 | Cc1cn(C)c(C(=O)NS(=O)(=O)c2ccccc2Cl)n1 | 230 to 231
55 | Cn1cnc2nc(-c3cccc4ccccc34)nn2c1=S | 278 to 279
56 | CCOC(=O)c1cnccc1CSc1nc(C)c(CC(=O)O)s1 | 139 to 141
57 | CN(C)C(=O)c1nn(-c2ccc(Cl)cc2)c(=O)c2c(N)scc12 | 242 to 244
58 | CC(=O)Nc1cc(C(F)(F)F)ccc1-c1cc(Oc2ccc3cccnc3c2)ncn1 | 137 to 138

Row | Compound | melting point [°C]
59 | C=CCn1c(=O)[nH]c(=O)c2[nH]c(C34CC5CC(CC3C5)C4)nc21 | > 270
60 | COc1ccc(C(=O)C2CCCCC2)c(Cl)c1Cl | 97 to 98
61 | CN(C)c1ccc(-c2[nH]c(-c3ccc([N+](=O)[O-])cc3)nc2C(=O)Nc2nccs2)cc1 | 250 to 251
62 | COc1cccc(C(=O)c2ccc([N+](=O)[O-])c(C=O)c2)c1 | 84
63 | Cc1cc(C)nc(OC(C(=O)O)C(O/C=C/Cc2ccccc2)(c2ccccc2)c2ccccc2)n1 (stereo unspecified) | 128 to 133
64 | CN1CC[C@]2(c3ccccc3)CCCC[C@@]2(O)C1 (relative stereo) | 84 to 87
65 | COc1ccc(-c2nc(C#N)cn2-c2ccc(OC)cc2)cc1 | 132 to 134
66 | Nc1ncccc1C(=O)NCC1CCN(C[C@H]2COc3cccc(Cl)c3O2)CC1 | 62 to 70
67 | CCOC(=O)c1cnc2n(c1=O)CCCCC2 | 82 to 84
68 | CC(=O)N1CCN(c2ccc(C3CCS(=O)(=O)NC3)cc2)CC1 (stereo unspecified) | 196 to 197
69 | NNC(=O)c1cc2ccncc2c2sc3ccccc3c12 | 285 to 289
70 | Cc1cc2c(cc1N(C)C=O)N1CCN=C1S2 | 164
71 | CCCOc1ccc(S(C)(=O)=O)cc1-c1nc2c(CC)nn(Cc3ccccn3)c2c(=O)[nH]1 | 209 to 211
72 | CC(C)N(CCC(CCN(C)C1CCCCC1)(C(N)=O)c1ccccc1)C(C)C (stereo unspecified) | 90 to 91
73 | CSCc1nnnn1C1CCN(c2ccc(N3C[C@H](CNC(C)=O)OC3=O)cc2F)CC1 | 118 to 119
74 | O=C(O)c1cc(OCc2ccccc2)cc(OCc2ccccc2)c1 | 211 to 213
75 | O=C(Cc1ccc2c(c1)Cc1c-2[nH]c(=O)c2nccn12)NCc1ccccc1 | > 260
76 | CC(C)(CC(=O)Nc1ccc2oc(-c3ccc4ccc(Cl)cc4n3)cc2c1)C(=O)O | 228 to 230
77 | CCCCOc1c(CO)n(CC(C)(C)C)c(=O)c2ccc(F)cc12 | 143 to 144
78 | COc1ccc(-n2nc(Sc3ccc(C(F)(F)F)cc3)c(C)c(C#N)c2=O)cc1 | 151 to 155

Row | Compound | melting point [°C]
79 | CC(C)(C)c1cccc(S(=O)(=O)n2c(C(=O)c3ccc(C(=O)O)s3)cc3cc(C(F)(F)F)ccc32)c1 | 217
80 | COc1cc(C(C)=O)ccc1OCCCN1C2CCC1CC(c1n[nH]c3cc(F)ccc13)C2 (stereo unspecified) | 157 to 158
81 | Cc1cc(C)n(-c2nc(Nc3ccccc3)c3ccccc3n2)n1 | 262 to 265
82 | CN(C)c1ccc(S(=O)(=O)N2CC(OC(=O)C(C)(C)C)CC2=O)cc1 (stereo unspecified) | 117 to 118
83 | CCCC1(C(C)(C)C(=O)Oc2ccc(N)cc2)C(=O)NC(=O)NC1=O | 212 to 215
84 | CC(C)(C)CC(NC(=O)c1ccc(C(F)(F)F)cc1)NC(=NS(=O)(=O)C(F)(F)F)Nc1cccnc1 (stereo unspecified) | 192 to 193
85 | CC(=O)NC1CCC(=O)c2ccccc21 (stereo unspecified) | 128 to 130
86 | Cc1ncc(-c2ccc(C(F)(F)F)cc2)c(NC2CCCCC2)n1 | 220 to 225
87 | CCN1C(=O)C(C(=O)Nc2ccc(F)cc2F)c2cc(C3(C)OCCO3)ccc21 (stereo unspecified) | 166 to 170
88 | Cc1ccc(CCc2cc3c(s2)NC(=S)CN=C3c2ccccc2Cl)cc1 | 190 to 191
89 | COc1cc(CN2CCC(=C3c4ccccc4CCn4ccnc43)CC2)cc(OC)c1OCc1ccc2ccccc2n1 | 215
90 | CCOC(=O)c1c(Oc2cccc(Cl)c2)c2cc(C(c3ccc(Cl)cc3)c3cnc(-c4ccccc4)[nH]3)ccc2[nH]c1=O (stereo unspecified) | 189
91 | CCOC(=O)N1Cc2sc3ncn(CCN4CCN(c5ccccc5OC)CC4)c(=O)c3c2C1 | 153 to 155
92 | CC(C)c1ccccc1Sc1c(O)cc(-c2ccc(OCC(=O)O)cc2)oc1=O | 217
93 | Cc1oc(-c2ccco2)nc1COc1ccc(COc2nn(Cc3ccc(OCc4nc(-c5ccco5)oc4C)cc3)cc2C(=O)O)cc1 | 144 to 145
94 | Cc1cccc(NC(=O)NC2N=C(c3ccccc3F)c3ccccc3N(Cc3nccc4ccccc34)C2=O)c1 (racemic) | 145 to 147
95 | CCOC(=O)C1=C(C)Nc2ccnc(OC(C)C)c2C1c1cccs1 (stereo unspecified) | 110 to 111
96 | CNc1nnc(SCc2ccccc2)s1 | 87 to 89
